By IC50 is commonly meant the point on the concentration scale where inhibition reaches its midpoint.

This test deals with T1, Recombinant (1-346) HPK1 (h) (Homo sapiens, UniProt Q92918).
T1 construct: Recombinant (1-346) HPK1 (h) is incubated with 8 mM MOPS pH 7.0
T1 sequence (Q92918 1-346): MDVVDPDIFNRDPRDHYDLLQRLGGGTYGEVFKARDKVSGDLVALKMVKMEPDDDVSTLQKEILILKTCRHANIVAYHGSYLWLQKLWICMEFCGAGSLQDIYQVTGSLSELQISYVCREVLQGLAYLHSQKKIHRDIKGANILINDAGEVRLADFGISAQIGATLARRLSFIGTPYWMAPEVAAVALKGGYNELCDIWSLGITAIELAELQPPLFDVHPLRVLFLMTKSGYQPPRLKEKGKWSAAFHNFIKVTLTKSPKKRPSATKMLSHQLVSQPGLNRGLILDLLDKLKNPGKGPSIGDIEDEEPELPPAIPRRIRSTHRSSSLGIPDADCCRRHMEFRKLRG
Description: HPK1 Human STE Kinase Enzymatic Radiometric Assay. The class given is biochemical. Particulars: read-out: HPK1 IC50 nM Range*. How it is done:
A stock solution of 10 mM of test compound is prepared in DMSO. The compound plate was prepared by 3-fold and 9-point serial dilutions. […] The reaction is initiated by The addition of the Mg/ATP mix. After incubation for 40 minutes at RT, the reaction is stopped by the addition of phosphoric acid to a concentration of 0.5%.
With `Cc1nc2cc(-c3cc(-c4ccc(N5CCN(C6CCC6)CC5)cc4)c(F)nc3N)ccc2c(=O)[nH]1` [I-472, 7-(2-amino-5-(4-(4-cyclobutylpiperazin-1-yl)phenyl)-6-fluoropyridin-3-yl)-2-methylquinazolin-4(3H)-one], the IC50 fell in the range of 0.1 to 10 nM. In the case of `Cc1cc2cc(-c3cc(-c4ccc(C5CCOCC5)c(CN(C)C)c4)c(F)nc3N)cc(F)c2c(=O)[nH]1` [I-504, 6-(2-amino-5-(3-((dimethylamino)methyl)-4-(tetrahydro-2H-pyran-4-yl)phenyl)-6-fluoropyridin-3-yl)-8-fluoro-3-methylisoquinolin-1(2H)-one], the IC50 is 11 to 100 nM. With `Cc1[nH]c(=O)c2ccc(-c3cc(-c4ccc(N5CCN(CC6CC6)CC5)cc4)c(F)nc3N)cc2c1F` [I-456, 6-(2-amino-5-(4-(4-(cyclopropylmethyl)piperazin-1-yl)phenyl)-6-fluoropyridin-3-yl)-4-fluoro-3-methylisoquinolin-1(2H)-one] the figure was 0.1 to 10 nM; with `CN(C)[C@@H]1CCOc2ccc(-c3cc(-c4ccc5c(=O)[nH]cc(F)c5c4)c(N)nc3F)cc21` [I-631, (R)-6-(2-amino-5-(4-(dimethylamino)chroman-6-yl)-6-fluoropyridin-3-yl)-4-fluoroisoquinolin-1(2H)-one], 11 to 100 nM; with `CC(C)N1CCN(c2ccc(-c3cc(-c4ccc5c(=O)[nH]c(C6CC6)nc5c4)c(N)nc3F)cc2)CC1` [I-412, 7-(2-amino-6-fluoro-5-(4-(4-isopropylpiperazin-1-yl)phenyl)pyridin-3-yl)-2-cyclopropylquinazolin-4(3H)-one], 101 to 1000 nM. With `COc1ccc(-c2cc(-c3cc4c(cc3F)C(=O)NCC4)c(N)nc2F)cc1CN1CCC(OC)CC1` [I-519, 6-(2-amino-6-fluoro-5-(4-methoxy-3-((4-methoxypiperidin-1-yl)methyl)phenyl)pyridin-3-yl)-7-fluoro-3,4-dihydroisoquinolin-1(2H)-one] the figure was 11 to 100 nM. For `Cc1cc2cc(-c3cc(-c4ccc(N5CCOCC5)c(CN(C)C)c4)c(F)nc3N)cc(F)c2c(=O)[nH]1` [I-505, 6-(2-amino-5-(3-((dimethylamino)methyl)-4-morpholinophenyl)-6-fluoropyridin-3-yl)-8-fluoro-3-methylisoquinolin-1(2H)-one], the IC50 lay in the range of 11 to 100 nM. As for `CC(C)N1CCN(c2ccc(-c3cc(-c4cc(F)c5c(c4)OCCNC5=O)c(N)nc3F)cc2)CC1` [I-636, 8-(2-amino-6-fluoro-5-(4-(4-isopropylpiperazin-1-yl)phenyl)pyridin-3-yl)-6-fluoro-3,4-dihydrobenzo[f][1,4]oxazepin-5(2H)-one], the figure is 0.1 to 10 nM. As for `Cc1c[nH]c(=O)c2ccc(-c3cc(-c4ccc5c(c4)[C@H](N(C)C)CCO5)c(F)nc3N)cc12` [I-628, (R)-6-(2-amnio-5-(4-(dimethylamino)chroman-6-yl)-6-fluoropyridin-3-yl)-4-methylisoquinolin-1(2H)-one], the IC50 is 11 to 100 nM. Regarding `Cc1nc2cc(-c3cc(-c4ccc(N5CCN(CCCC(F)F)CC5)cc4)c(F)nc3N)ccc2c(=O)[nH]1` [I-484, 7-(2-amino-5-(4-(4-(4,4-difluorobutyl)piperazin-1-yl)phenyl)-6-fluoropyridin-3-yl)-2-methylquinazolin-4(3H)-one], the IC50 lay within 0.1 to 10 nM. As to `COC1CCN(Cc2cc(-c3cc(-c4cc5c(cc4F)C(=O)NCC5)c(N)nc3F)ccc2C2CCOCC2)CC1` [I-541, 6-(2-amino-6-fluoro-5-(3-((4-methoxypiperidin-1-yl)methyl)-4-(tetrahydro-2H-pyran-4-yl)phenyl)pyridin-3-yl)-7-fluoro-3,4-dihydroisoquinolin-1(2H)-one], the IC50 was in the range of 11 to 100 nM.

In the case of `Cc1nc2cc(-c3cc(-c4ccc(N5CCN(C6CCC6)CC5)cc4)c(F)nc3N)cc(F)c2c(=O)[nH]1` [I-473, 7-(2-amino-5-(4-(4-cyclobutylpiperazin-1-yl)phenyl)-6-fluoropyridin-3-yl)-5-fluoro-2-methylquinazolin-4(3H)-one], the concentration for half-maximal inhibition (IC50) fell in the range of 0.1 to 10 nM. With `CN(C)Cc1nc(-c2cc(-c3cc4c(cc3F)C(=O)NCC4)c(N)nc2F)ccc1C1CCOCC1` [I-601, 6-(6′-amino-6-((dimethylamino)methyl)-2′-fluoro-5-(tetrahydro-2H-pyran-4-yl)-[2,3′-bipyridin]-5′-yl)-7-fluoro-3,4-dihydroisoquinolin-1(2H)-one] the figure was 0.1 to 10 nM; with `Nc1nc(F)c(-c2ccc([C@]34C[C@H]3CN(C3CCC3)C4)cc2)cc1-c1ccc2c(=O)[nH]cc(F)c2c1` [I-520, 6-(2-amino-5-(4-((1S,5R)-3-cyclobutyl-3-azabicyclo[3.1.0]hexan-1-yl)phenyl)-6-fluoropyridin-3-yl)-4-fluoroisoquinolin-1(2H)-one], 0.1 to 10 nM; with `COC1CCN(Cc2cc(-c3cc(-c4ccc5c(c4)CCNC5=O)c(N)nc3F)ccc2N2CCOCC2)C1` (stereo not shown) [I-542, 6-(2-amino-6-fluoro-5-(3-((3-methoxypyrrolidin-1-yl)methyl)-4-morpholinophenyl)pyridin-3-yl)-3,4-dihydroisoquinolin-1(2H)-one], 11 to 100 nM. As for `Cc1c[nH]c(=O)c2ccc(-c3cc(-c4ccc(F)c(CN(C)C)c4)c(F)nc3N)cc12` [I-626, 6-(2-amino-5-(3-((dimethylamino)methyl)-4-fluorophenyl)-6-fluoropyridin-3-yl)-4-methylisoquinolin-1(2H)-one], the figure is 101 to 1000 nM; as for `Nc1nc(F)c(-c2cccc([C@@H]3CCCN3)c2)cc1-c1ccc2c(c1)CCNC2=O` [I-646, (S)-6-(2-amino-6-fluoro-5-(3-(pyrrolidin-2-yl)phenyl)pyridin-3-yl)-3,4-dihydroisoquinolin-1(2H)-one], 0.1 to 10 nM; as for `COC1CCN(Cc2cc(-c3cc(-c4cc5c(cc4F)C(=O)NCC5)c(N)nc3F)ccc2N2CCSCC2)CC1` [I-513, 6-(2-amino-6-fluoro-5-(3-((4-methoxypiperidin-1-yl)methyl)-4-thiomorpholinophenyl)pyridin-3-yl)-7-fluoro-3,4-dihydroisoquinolin-1(2H)-one], 11 to 100 nM.

In the case of `CN(C)Cc1cc(-c2cc(-c3cc4c(cc3F)C(=O)NCC4)c(N)nc2F)ccc1N1CCN(C2CCC2)CC1` [I-462, 6-(2-amino-5-(4-(4-cyclobutylpiperazin-1-yl)-3-((dimethylamino)methyl)phenyl)-6-fluoropyridin-3-yl)-7-fluoro-3,4-dihydroisoquinolin-1(2H)-one], the half-inhibitory concentration (IC50) was 0.1 to 10 nM. As for `COC1CCN(Cc2cc(-c3cc(-c4ccc5c(c4)CCNC5=O)c(N)nc3F)ccc2OCCCC(F)F)CC1` [I-526, 6-(2-amino-5-(4-(4,4-difluorobutoxy)-3-((4-methoxypiperidin-1-yl)methyl)phenyl)-6-fluoropyridin-3-yl)-3,4-dihydroisoquinolin-1(2H)-one], the figure is 11 to 100 nM; as for `CN(C)Cc1cc(-c2cc(-c3cc4c(cc3F)C(=O)NCC4)c(N)nc2F)ccc1N1CCOCC1` [I-433, 6-(2-amino-5-(3-((dimethylamino)methyl)-4-morpholinophenyl)-6-fluoropyridin-3-yl)-7-fluoro-3,4-dihydroisoquinolin-1(2H)-one], 0.1 to 10 nM.

Consider `COC1CCN(Cc2cc(-c3cc(-c4cc5c(cc4F)C(=O)NCC5)c(N)nc3F)ccc2OCC2CC2)CC1` [I-509, 6-(2-amino-5-(4-(cyclopropylmethoxy)-3-((4-methoxypiperidin-1-yl)methyl)phenyl)-6-fluoropyridin-3-yl)-7-fluoro-3,4-dihydroisoquinolin-1(2H)-one], for which the IC50 was in the range of 11 to 100 nM.

Source of the values: US20240343704A1, “HALO-SUBSTITUTED AMINO PYRIDINE COMPOUNDS AS INHIBITORS OF THE HAEMATOPOIETIC PROGENITOR KINASE 1 (HPK1)” (priority 2021, published 2024).
